Experimental data: paper PMC8886331, “Lewis fucose is a key moiety for the recognition of histo‐blood group antigens by GI.9 norovirus, as revealed by structural analysis” (FEBS Open Bio, 2022)

Columns and labels:
[1] = molecular target: T1, GI.9 Vancouver P domain (P dimer) of VP1 (Norovirus Hu/GI/Vancouver730/2004/CAN, UniProt F2XMU3); test: X-ray crystal structure (soak), […] A; assay type: binding; conditions: crystal in 0.1 M bicine pH 9.0, 1.5-1.7 M MgCl2; soaked with 100 mM ligand overnight at 25 °C; HBGA site at P dimer interface
T1 construct: P (protruding) domain, residues 229-540 of VP1; N11-SUMO fusion from E. coli cell-free system or E. coli KRX, tag cleaved with SUMO protease; homodimer, site formed by both protomers (P-loop from the other protomer)

[2] = molecular target: T1, GI.9 Vancouver P domain (P dimer) of VP1; test: X-ray crystal structure (soak), […] A; assay type: binding; conditions: crystal in 0.1 M bicine pH 9.0, 1.5-1.7 M MgCl2; soaked with 100 mM ligand overnight at 25 °C; HBGA site at P dimer interface; remark: listed apart in the source
[3] = molecular target: P domain of the VP1 capsid protein of the GI.9 norovirus Vancouver 730 strain (norovirus GI.9, Vancouver 730 strain); test: SEC; size-exclusion chromatogram of the synthesized P domain proteins; data not shown

CC(=O)N[C@H]1C(O)O[C@H](CO)[C@@H](O[C@@H]2O[C@@H](C)[C@@H](O)[C@@H](O)[C@@H]2O)[C@@H]1O[C@@H]1O[C@H](CO)[C@H](O)[C@H](O)[C@H]1O[C@@H]1O[C@@H](C)[C@@H](O)[C@@H](O)[C@@H]1O (stereo partly drawn) [Lewis b tetrasaccharide]
X-ray crystal structure (soak), 2.40 A [1]: crystal structures of the P domains complexed with each of Lewis b tetrasaccharide and Lewis x

CC(=O)N[C@H]1C(O)O[C@H](CO)[C@@H](O[C@@H]2O[C@H](CO)[C@H](O)[C@H](O)[C@H]2O)[C@@H]1O[C@@H]1O[C@@H](C)[C@@H](O)[C@@H](O)[C@@H]1O (stereo partly drawn) [Lewis x trisaccharide]
X-ray crystal structure (soak), 2.26 A [2]: P domains complexed with each of Lewis b tetrasaccharide and Lewis x trisaccharide

P domain of the VP1 capsid protein of the GI.9 norovirus Vancouver 730 strain (domain or fragment)
stoichiometry N [3]: 2
